Source: ChEMBL document CHEMBL5126522, “In vitro and in vivo evaluation of 211At-labeled fibroblast activation protein inhibitor for glioma treatment” (Bioorg Med Chem, 2022)
The source made the active and inactive calls.

How the values were obtained:
U-87MG ATCC [1] = test: Cytotoxicity against human U-87 MG cells assessed as reduction in cell viability incubated in radioactive medium for 12 hrs followed by incubation in non-radioactive medium for 24 hrs by CCK8 assay; type: functional, cell-based; conditions: dose 12-92 kBq, time 36.0 hrs, tested as the 211At-labelled form, DDE = dose-dependent effect
U-87MG ATCC [2] = test: Induction of apoptosis in human U-87 MG cells assessed as fragmented and condensed chromatin at 18.5 to 185 kBq measured after 24 hrs by DAPI staining based confocal microscopy; type: functional, cell-based; conditions: dose 18.5-185 kBq, tested as the 211At-labelled form
U-87MG ATCC [3] = test: Antitumor activity against human U-87 MG cells xenografted in BALB/c nude mouse assessed as reduction in Ki67 expression in tumor at 0.55 MBq, it measured after 12 days by immunohistochemical analysis; type: functional, cell-based; conditions: time 12.0 day, tested as the 211At-labelled form
U-87MG ATCC [4] = test: Inhibition of colony formation in human U-87 MG cells incubated in radioactive medium for 12 hrs followed by incubation in non-radioactive medium for 14 days by crystal violet staining based analysis; type: functional, cell-based; conditions: dose 4.6-18.5 kBq, time 852.0 hrs, tested as the 211At-labelled form, DDE = dose-dependent effect
U-87MG ATCC [5] = test: Anti-tumor activity against human U-87 MG cells xenografted in BALB/c nude mouse assessed as reduction in tumor growth administered IT measured every 3 days by electronic caliper analysis; type: functional; conditions: dose 0.18-0.55 MBq, DDE = dose-dependent effect, tested as the 211At-labelled form
U-87MG ATCC [6] = test: Induction of cell cycle arrest in human U-87 MG cells assessed as increase in proportion of cells at S phase at 185 kBq incubated in radioactive medium for 12 hrs followed by incubation in non-radioactive medium for 24 hrs by PI staining based flow cytometry; type: functional; conditions: time 36.0 hrs, tested as the 211At-labelled form

N#C[C@@H]1CC(F)(F)CN1C(=O)CNC(=O)c1ccnc2ccc(OCCCN3CCN(C(=O)c4ccc([At])cc4)CC3)cc12
active: Activity (U-87MG ATCC [1]) Dde | Activity (U-87MG ATCC [2]) | Activity (U-87MG ATCC [3]) | inhibition (U-87MG ATCC [4]) Dde | Activity (U-87MG ATCC [5]) Dde | Activity (U-87MG ATCC [6])
